Test results taken from patent US20250171420A1 (Monte Rosa Therapeutics, Inc., priority 2022, published 2025).
Like-named read-outs stand apart in the source and are kept apart here.

Columns and labels:
CK1α [1] = target: T1, CK1α (Homo sapiens, UniProt P48729); test: CK1α NanoBit Assay (HiBiT-tagged CSNK1A1, HEK293 clonal lines); type: cell-based; conditions: HEK293 HiBiT-CSNK1A1/LgBiT cells, 24 h incubation
T1 construct: HEK293 clonal lines with CRISPR KI HiBiT tag on CSNK1A1
In short: (§1)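 HEK293 clones carrying a CRISPR knock-in HiBiT tag on CSNK1A1 and stably expressing LgBiT are treated with compound for 24 hours at 37° C, 5% CO2, then read by luminescence. Response is normalized as 100*(S−N)/(P−N) against plate negative and positive controls, and DC50 values are derived.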

CRBN/DDB1 = CRBN/DDB1 (Homo sapiens, UniProt Q96SW2); test: HTRF binding assay (displacement of Cy5-thalidomide probe from CRBN/DDB1)
In short: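 Compounds in a 10-point threefold dilution series were incubated 30 min at ambient temperature with 2.5 nM CRBN/DDB1, 100 nM Cy5-thalidomide probe and terbium anti-His donor (HEPES/NaCl/TCEP/EDTA/Tween20 buffer). IC50 came from 4-parameter fits of the 665/620 nm HTRF ratio; Ki used Cheng-Prusoff on geometric-mean IC50.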

[2] = Oral pharmacokinetics in male BALB/c mice; type: in vivo; conditions: mouse, plasma, mean ± SD
Method: Male BALB/c mice were administered a discrete, oral (PO) dose of Compound 288, Compound 335, Compound 102, or Compound 303 at 10 mg/kg; all mice were fasted except for mice that were dosed with Compound 288. Male BALB/c mice were fasted overnight and administered a cassette dose, PO dose of Compound 303 and other compounds at 5 mg/kg per compound.
Blood samples were collected serially from three animals/time-point following PO administration of the test compounds to the mice and placed in tubes containing K2EDTA. The blood samples were centrifuged, and the aliquots of the resulting plasma stored frozen at −60 to −90° C.
The plasma samples were analyzed by LC-MS/MS to determine concentrations of the test compounds. The in-life portion of the study and the bioanalysis of plasma samples was conducted at Wuxi (China).
The pharmacokinetic parameters for the tested compounds were calculated by non-compartmental analysis using Phoenix WinNonlin software.

CK1α [3] = target: T2, CK1α (Homo sapiens, UniProt P48729+Q96SW2); test: CK1α NanoBit Assay (HiBiT-tagged CSNK1A1, HEK293 clonal lines); type: cell-based; conditions: read-out: CK1α DC50 (μM) 24 h; HEK293 HiBiT-CSNK1A1/LgBiT cells, 24 h incubation
T2 construct: HEK293 clonal lines with CRISPR KI HiBiT tag on CSNK1A1
In short: as §1

SKCO1 cell line = test: Growth inhibition, CyQUANT Direct Cell Proliferation Assay, SKCO1; type: cell-based; conditions: Homo sapiens
Method: (§2) SKCO1, LS180, and LS174T cell lines were purchased from ATCC. CW2 cell line was purchased from Riken. GP2D cell line was purchased from Sigma/ECACC. All cell lines were cultured in manufacturer's recommended media at 37° C., 5% CO2. Briefly, cells were suspended in 200 μL of media and seeded at 300 to 1,800 cells per well in tissue culture treated 96-well plates with black walls and clear bottom. Plates were incubated overnight and initial (To) read was performed the following day using CyQUANT Direct Cell Proliferation Assay Kit (Thermo Fisher Scientific) according to manufacturer's protocol. All compounds were solubilized in DMSO and prepared at 3-fold serial dilution, using 9 points starting at 30 μM as highest concentration, administered to cells and incubated for 120 to 168 hours, at which point CyQUANT assay measurement was performed using Acumen Cellista instrument (Ex/Em 480/520 nm). Media-only wells were used as blank, and 0.3% DMSO was used as DMSO-treated cell control. Growth inhibition (percent response) was calculated using the following formula in Excel: “=if ([Compound treated Day N]>[Untreated Day 0, AVG], ([Compound treated Day N]−[Untreated Day 0, AVG])/([Untreated Day N]−[Untreated Day 0, AVG])*100, ([Compound Treated Day N]−[Untreated Day 0, AVG])/([Untreated Day 0, AVG])*100)”. GI50 is the response corresponding to the 50% of untreated control.
(§3) GI50 data are reported in Tables 4a, 4b, 4c, 4d, and 4e for compounds in Table 1. In Tables 4a, 4b, 4c, 4d, and 4e below, According to the code, A represents a GI50 value of ≤0.1 μM, B represents a GI50 value>0.1 μM and ≤1 μM, C represents an GI50 value>1 μM.

CW2 cell line = test: Growth inhibition, CyQUANT Direct Cell Proliferation Assay, CW2; type: cell-based; conditions: Homo sapiens
Method: as §2, §3

GP2D cell line = test: Growth inhibition, CyQUANT Direct Cell Proliferation Assay, GP2D; type: cell-based
Method: as §2, §3

LS180 cell line = test: Growth inhibition, CyQUANT Direct Cell Proliferation Assay, LS180; type: cell-based; conditions: Homo sapiens
Method: as §2, §3

LS174T cell line = test: Growth inhibition, CyQUANT Direct Cell Proliferation Assay, LS174T; type: cell-based; conditions: Homo sapiens
Method: as §2, §3

[4] = CRBN/DDB1 2.5 nM, Cy5-Thalidomide 100 nM, 30 min, geometric mean, read-out: HTRF_Thali_Disp_DR_geo_IC50
[5] = SK-CO-1, SKCO1, 120 to 168 hours, read-out: SKCO1 GI50
[6] = CW-2, CW2, 120 to 168 hours, read-out: CW2 GI50
[7] = GP2D, 120 to 168 hours, read-out: GP2D GI50
[8] = LS180, 120 to 168 hours, read-out: LS180 GI50
[9] = 120 to 168 hours, read-out: LS174T GI50
[10] = SK-CO-1, read-out: SKCO1 GI50 (μM)
[11] = LS180, read-out: LS180 GI50 (μM)

Chain of CRBN/DDB1 (Q96SW2 whole entry, species assumed): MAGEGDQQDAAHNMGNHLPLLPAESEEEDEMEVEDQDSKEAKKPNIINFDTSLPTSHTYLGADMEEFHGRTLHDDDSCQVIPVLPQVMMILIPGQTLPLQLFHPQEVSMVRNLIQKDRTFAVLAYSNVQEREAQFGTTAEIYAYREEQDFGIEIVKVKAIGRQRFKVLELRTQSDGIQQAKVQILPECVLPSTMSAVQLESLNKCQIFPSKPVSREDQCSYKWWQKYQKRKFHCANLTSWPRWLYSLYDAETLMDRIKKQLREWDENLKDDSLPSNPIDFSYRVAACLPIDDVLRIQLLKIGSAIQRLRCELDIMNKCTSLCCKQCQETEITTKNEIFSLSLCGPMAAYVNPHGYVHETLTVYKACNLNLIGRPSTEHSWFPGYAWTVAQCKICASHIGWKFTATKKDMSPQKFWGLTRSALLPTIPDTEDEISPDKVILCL
Chain of CRBN/DDB1 (Q16531 whole entry partner, species assumed): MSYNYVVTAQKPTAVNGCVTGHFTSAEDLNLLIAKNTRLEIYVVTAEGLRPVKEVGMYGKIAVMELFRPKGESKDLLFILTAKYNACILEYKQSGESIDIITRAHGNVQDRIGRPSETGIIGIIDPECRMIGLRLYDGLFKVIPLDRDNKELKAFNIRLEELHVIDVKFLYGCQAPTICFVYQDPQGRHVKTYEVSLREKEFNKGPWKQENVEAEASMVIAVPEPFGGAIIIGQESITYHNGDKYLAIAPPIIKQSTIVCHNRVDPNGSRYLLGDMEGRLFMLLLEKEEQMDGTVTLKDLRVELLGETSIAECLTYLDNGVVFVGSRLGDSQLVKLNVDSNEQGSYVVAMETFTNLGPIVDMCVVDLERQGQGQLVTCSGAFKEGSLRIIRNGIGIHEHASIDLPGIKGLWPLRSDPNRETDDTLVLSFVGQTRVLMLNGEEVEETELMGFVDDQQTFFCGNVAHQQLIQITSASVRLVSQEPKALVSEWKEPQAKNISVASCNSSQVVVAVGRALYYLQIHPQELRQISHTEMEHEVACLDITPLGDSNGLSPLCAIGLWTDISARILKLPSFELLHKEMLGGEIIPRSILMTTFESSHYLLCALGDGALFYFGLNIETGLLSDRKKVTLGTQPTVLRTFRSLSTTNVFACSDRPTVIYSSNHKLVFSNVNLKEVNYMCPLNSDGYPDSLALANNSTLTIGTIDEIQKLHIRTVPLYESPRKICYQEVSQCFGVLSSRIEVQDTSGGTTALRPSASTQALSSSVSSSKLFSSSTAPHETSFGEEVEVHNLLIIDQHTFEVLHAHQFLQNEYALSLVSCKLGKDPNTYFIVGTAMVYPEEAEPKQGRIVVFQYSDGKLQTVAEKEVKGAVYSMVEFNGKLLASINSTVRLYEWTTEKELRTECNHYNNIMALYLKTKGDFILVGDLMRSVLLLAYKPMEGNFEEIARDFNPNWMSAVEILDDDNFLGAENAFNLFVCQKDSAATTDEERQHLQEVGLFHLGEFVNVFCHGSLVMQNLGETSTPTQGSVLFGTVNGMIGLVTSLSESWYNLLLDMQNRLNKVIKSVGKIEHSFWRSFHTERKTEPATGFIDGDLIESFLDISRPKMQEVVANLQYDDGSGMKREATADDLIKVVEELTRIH
T1 sequence (P48729 whole entry): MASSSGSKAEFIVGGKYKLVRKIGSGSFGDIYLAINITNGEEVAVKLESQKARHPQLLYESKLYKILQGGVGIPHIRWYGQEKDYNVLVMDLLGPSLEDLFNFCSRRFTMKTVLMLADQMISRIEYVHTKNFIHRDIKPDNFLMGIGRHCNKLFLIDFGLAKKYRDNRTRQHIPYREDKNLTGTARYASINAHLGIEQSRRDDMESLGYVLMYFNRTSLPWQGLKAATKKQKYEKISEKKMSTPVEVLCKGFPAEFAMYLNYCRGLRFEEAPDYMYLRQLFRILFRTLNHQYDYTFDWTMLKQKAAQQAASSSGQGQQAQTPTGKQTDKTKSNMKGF
T1 sequence (Q96SW2 whole entry, further chain): as the sequence (Q96SW2 whole entry, species assumed) above
T1 sequence (Q16531 2-1140 partner limits assumed): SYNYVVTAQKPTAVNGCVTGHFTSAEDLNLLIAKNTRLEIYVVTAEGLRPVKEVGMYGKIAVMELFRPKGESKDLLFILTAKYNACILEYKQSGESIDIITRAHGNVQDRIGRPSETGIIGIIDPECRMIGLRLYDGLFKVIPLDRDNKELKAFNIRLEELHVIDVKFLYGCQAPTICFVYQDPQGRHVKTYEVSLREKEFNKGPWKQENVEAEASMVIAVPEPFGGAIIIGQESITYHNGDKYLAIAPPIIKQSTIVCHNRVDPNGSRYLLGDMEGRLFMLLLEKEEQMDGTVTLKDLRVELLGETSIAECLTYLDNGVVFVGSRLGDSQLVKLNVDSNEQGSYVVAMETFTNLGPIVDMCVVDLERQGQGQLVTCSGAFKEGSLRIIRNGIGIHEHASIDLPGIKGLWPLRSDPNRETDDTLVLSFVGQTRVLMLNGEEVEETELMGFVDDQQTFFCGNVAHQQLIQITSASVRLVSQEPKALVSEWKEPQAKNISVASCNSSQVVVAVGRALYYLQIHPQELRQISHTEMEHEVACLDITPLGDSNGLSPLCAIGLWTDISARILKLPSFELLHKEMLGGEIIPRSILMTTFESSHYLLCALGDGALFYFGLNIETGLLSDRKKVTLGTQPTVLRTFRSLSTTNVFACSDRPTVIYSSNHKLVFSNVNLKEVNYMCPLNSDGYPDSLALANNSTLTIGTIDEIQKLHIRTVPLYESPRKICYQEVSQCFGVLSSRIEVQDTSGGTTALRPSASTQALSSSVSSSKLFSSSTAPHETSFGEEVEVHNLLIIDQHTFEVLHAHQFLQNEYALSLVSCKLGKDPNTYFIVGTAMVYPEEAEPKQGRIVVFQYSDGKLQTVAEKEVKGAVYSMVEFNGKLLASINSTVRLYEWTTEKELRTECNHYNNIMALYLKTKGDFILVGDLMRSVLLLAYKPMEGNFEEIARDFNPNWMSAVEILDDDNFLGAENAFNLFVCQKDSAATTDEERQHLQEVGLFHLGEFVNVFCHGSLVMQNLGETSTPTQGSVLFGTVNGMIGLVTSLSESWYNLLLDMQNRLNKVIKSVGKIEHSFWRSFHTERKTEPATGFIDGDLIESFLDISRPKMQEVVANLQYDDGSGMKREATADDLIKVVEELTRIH
T2 sequence (P48729 whole entry): as the sequence (P48729 whole entry) above
T2 sequence (Q96SW2 whole entry): as the sequence (Q96SW2 whole entry, species assumed) above
T2 sequence (Q16531 2-1140 partner limits assumed): as the sequence (Q16531 2-1140 partner limits assumed) above

Compound | DC50 (CK1α [1]) [µM] | IC50 (CRBN/DDB1; [4]) [nM] | GI50 (SKCO1 cell line; [5]) [µM] | GI50 (CW2 cell line; [6]) [µM] | GI50 (GP2D cell line; [7]) [µM] | GI50 (LS180 cell line; [8]) [µM] | GI50 (LS174T cell line; [9]) [µM] | other results
CC(C)(C)C1CN(C(=O)Nc2ccc3c(c2)CN(C2CCC(=O)NC2=O)C3=O)c2ccccc21 (stereo not drawn) [Compound 187, 3-(tert-butyl)-N-(2-(2,6-dioxopiperidin-3-yl)-1-oxoisoindolin-5-yl)indoline-1-carboxamide] | – | – | – | – | – | – | – | DC50 (CK1α [3]): < 0.1 µM; IC50 (CRBN/DDB1): 100 to 1000 nM
O=C1CCC(N2Cc3cc(NC(=O)N4C[C@H](C5CC5)C[C@@H]4C4CC4)ccc3C2=O)C(=O)N1 (stereo partly drawn) [Compound 256] | < 0.1 | 100 to 1000 | < 0.1 | < 0.1 | 0.1 to 1 | 0.1 to 1 | < 0.1 | –
COC[C@H]1Cc2c(C3CC3)cccc2N1C(=O)Nc1ccc2c(c1)CN(C1CCC(=O)NC1=O)C2=O (stereo partly drawn) [Compound 332, (2R)-4-cyclopropyl-N-(2-(2,6-dioxopiperidin-3-yl)-1-oxoisoindolin-5-yl)-2-(methoxymethyl)indoline-1-carboxamide] | < 0.1 | 100 to 1000 | 0.1 to 1 | < 0.1 | 0.1 to 1 | 0.1 to 1 | 0.1 to 1 | –
COC[C@@H]1Cc2ccccc2N1C(=O)Nc1ccc2c(c1)CN(C1CCC(=O)NC1=O)C2=O (stereo in doubt) [Compound 334, (S)—N-(2-((R)-2,6-dioxopiperidin-3-yl)-1-oxoisoindolin-5-yl)-2-(methoxymethyl)indoline-1-carboxamide] | < 0.1 | > 1000 | 0.1 to 1 | 0.1 to 1 | 0.1 to 1 | 0.1 to 1 | 0.1 to 1 | –
CC1Cc2ccccc2CN1C(=O)Nc1ccc2c(c1)CN(C1CCC(=O)NC1=O)C2=O (stereo not drawn) [Compound 205, N-(2-(2,6-dioxopiperidin-3-yl)-1-oxoisoindolin-5-yl)-3-methyl-3,4-dihydroisoquinoline-2(1H)-carboxamide] | < 0.1 | 100 to 1000 | – | – | – | – | – | GI50 (SKCO1 cell line; [10]): < 0.1 µM; GI50 (CW2 cell line; CW-2, read-out: CW2 GI50 (μM)): < 0.1 µM; GI50 (GP2D cell line; GP2d, read-out: GP2D GI50 (μM)): < 0.1 µM; GI50 (LS180 cell line; [11]): 0.1 to 1 µM; GI50 (LS174T cell line; read-out: LS174T GI50 (μM)): 0.1 to 1 µM
O=C1CCC(N2Cc3cc(NC(=O)N4CCc5c4cccc5C(F)(F)F)ccc3C2=O)C(=O)N1 (stereo not drawn) [Compound 135, N-(2-(2,6-dioxopiperidin-3-yl)-1-oxoisoindolin-5-yl)-4-(trifluoromethyl)indoline-1-carboxamide] | < 0.1 | 100 to 1000 | – | – | – | – | – | GI50 (SKCO1 cell line; [10]): < 0.1 µM; GI50 (CW2 cell line; CW-2, read-out: CW2 GI50 (μM)): < 0.1 µM; GI50 (GP2D cell line; GP2d, read-out: GP2D GI50 (μM)): < 0.1 µM; GI50 (LS180 cell line; [11]): 0.1 to 1 µM; GI50 (LS174T cell line; read-out: LS174T GI50 (μM)): 0.1 to 1 µM

Continued, in another order:

DC50 (CK1α [1]) [µM] | IC50 (CRBN/DDB1; [4]) [nM] | GI50 (SKCO1 cell line; [5]) [µM] | Compound | GI50 (CW2 cell line; [6]) [µM] | GI50 (GP2D cell line; [7]) [µM] | GI50 (LS180 cell line; [8]) [µM] | GI50 (LS174T cell line; [9]) [µM] | other results
< 0.1 | 100 to 1000 | – | COCC1c2ccc(C3CC3)cc2CN1C(=O)Nc1ccc2c(c1)CN(C1CCC(=O)NC1=O)C2=O (stereo not drawn) [Compound 335, 5-cyclopropyl-N-(2-(2,6-dioxopiperidin-3-yl)-1-oxoisoindolin-5-yl)-1-(methoxymethyl)isoindoline-2-carboxamide] | – | – | – | – | AUC ([2]; PO 10 mg/kg): 13400 ± 696 ng·h/mL; AUC(0-t) ([2]; PO 10 mg/kg): 13300 ± 694 ng·h/mL; Cmax ([2]; PO 10 mg/kg): 10600 ± 697 ng/mL; Tmax ([2]; PO 10 mg/kg): 15 min; half-life ([2]; PO 10 mg/kg): 64.8 ± 2.4 min
< 0.1 | > 1000 | < 0.1 | O=C1CCC(N2Cc3cc(NC(=O)N4CCc5c(F)cccc54)ccc3C2=O)C(=O)N1 (stereo not drawn) [Compound 201, N-(2-(2,6-dioxopiperidin-3-yl)-1-oxoisoindolin-5-yl)-4-fluoroindoline-1-carboxamide] | < 0.1 | < 0.1 | 0.1 to 1 | < 0.1 | –
< 0.1 | 100 to 1000 | < 0.1 | COC[C@H]1CN(C(=O)Nc2ccc3c(c2)CN(C2CCC(=O)NC2=O)C3=O)c2ccccc21 (stereo partly drawn) [Compound 338, (3R)—N-(2-(2,6-dioxopiperidin-3-yl)-1-oxoisoindolin-5-yl)-3-(methoxymethyl)indoline-1-carboxamide] | 0.1 to 1 | < 0.1 | < 0.1 | < 0.1 | –
< 0.1 | 100 to 1000 | < 0.1 | O=C1CCC(N2Cc3cc(NC(=O)N4CCc5cc(C6CC6)ccc54)ccc3C2=O)C(=O)N1 (stereo not drawn) [Compound 348, 5-cyclopropyl-N-(2-(2,6-dioxopiperidin-3-yl)-1-oxoisoindolin-5-yl)indoline-1-carboxamide] | < 0.1 | < 0.1 | < 0.1 | < 0.1 | –
< 0.1 | 100 to 1000 | < 0.1 | COC[C@@H]1Cc2ccccc2N1C(=O)Nc1ccc2c(c1)CN(C1CCC(=O)NC1=O)C2=O (stereo partly drawn) [Compound 288, (2S)—N-(2-(2,6-dioxopiperidin-3-yl)-1-oxoisoindolin-5-yl)-2-(methoxymethyl)indoline-1-carboxamide] | < 0.1 | 0.1 to 1 | 0.1 to 1 | 0.1 to 1 | AUC ([2]; PO 10 mg/kg): 29700 ± 2450 ng·h/mL; AUC(0-t) ([2]; PO 10 mg/kg): 29600 ± 2460 ng·h/mL; Cmax ([2]; PO 10 mg/kg): 6870 ± 761 ng/mL; Tmax ([2]; PO 10 mg/kg): 49.8 ± 17.4 min; half-life ([2]; PO 10 mg/kg): 163 ± 29.4 min
< 0.1 | 100 to 1000 | – | COC[C@H]1Cc2c(F)cccc2N1C(=O)Nc1ccc2c(c1)CN(C1CCC(=O)NC1=O)C2=O (stereo partly drawn) [Compound 303, (2R)—N-(2-(2,6-dioxopiperidin-3-yl)-1-oxoisoindolin-5-yl)-4-fluoro-2-(methoxymethyl)indoline-1-carboxamide] | – | – | – | – | AUC ([2]; PO 5 mg/kg (cassette dose)): 12700 ± 1760 ng·h/mL; AUC(0-t) ([2]; PO 5 mg/kg (cassette dose)): 12300 ± 1710 ng·h/mL; Cmax ([2]; PO 5 mg/kg (cassette dose)): 7790 ± 1060 ng/mL; Tmax ([2]; PO 5 mg/kg (cassette dose)): 30 min; half-life ([2]; PO 5 mg/kg (cassette dose)): 90.6 ± 13.2 min
